Laboratory results taken from patent publication US4866063A, “Diol metabolites of 7-phenyl-1,2,4-triazolo[2,3-c]pyrimidines-5-amines” (priority 1988, dated 1989).
Entries after “also recorded” stand apart in the source; their conditions may differ. Like-named read-outs stand apart in the source and are kept apart here.

Legend:
[1] = rat, in vivo
[2] = cited from earlier work
[3] = Cardiotoxicity of compounds I and II in rats
[4] = Metabolism of compound II in the rat; assay type: in vivo
[5] = Metabolism of compound II in man; assay type: in vivo
heart or adrenal gland = test: Cardiotoxicity study of compound III in rats (gross and histologic examination, mortality); assay type: in vivo, female Charles River CD rats; conditions: conclusion of the study
Method: (§1) Compound III was administered by gavage at 40 mg/kg, 80 mg/kg, 160 mg/kg and 320 mg/kg to female Charles River CD rats (10/dosage) once daily for three days. One additional group of rats received vehicle for three days to serve as controls. […] Additional groups of rats (3/dosage) were sacrificed two hours after dosing on day 1, blood collected, and samples analyzed to determine plasma concentrations of compound III.

[6] = Plasma concentrations of compound III two hours after dosing on day 1; assay type: in vivo, female Charles River CD rats; conditions: for concentration at 2 h: rat, plasma, po, gavage, two hours after dosing on day 1
Method: as §1

[7] = Water solubility compared with precursor compounds; assay type: physicochemical; conditions: vs compounds I and II
[8] = Bioavailability compared with precursor compounds; assay type: in vivo; conditions: vs compounds I and II

Row | Compound | Myocardial lesions and associated changes [1] | Glomerular filtration rate ([2]; acute, mammals) | Renal blood flow ([2]; acute, mammals) | Glomerular filtration rate ([2]; chronic oral dosing) | Renal blood flow ([2]; chronic oral dosing) | Sodium excretion ([2]; chronic oral dosing) | Cardiotoxicity [3] | Aliphatic hydroxylation (metabolism) [4] | Aliphatic hydroxylation (similar metabolism) [5] | Cardiotoxicity (heart or adrenal gland) | Plasma concentrations relative to those expected at cardiotoxic dosages of compounds I and II ([6]; 40-320 mg/kg) | concentration at 2 h ([6]; 40 mg/kg) | concentration at 2 h ([6]; 80 mg/kg) | concentration at 2 h ([6]; 160 mg/kg) | concentration at 2 h ([6]; 320 mg/kg) | Water solubility relative to either precursor compound [7] | Bioavailability relative to either precursor compound [8]
1 | CCOCCc1c(-c2ccccc2)nc(N)n2ncnc12 [compound I, 8-(2-ethoxyethyl)-7-phenyl-1,2,4-triazolo[2,3-c]pyrimidine-5-amine] | myocardial lesions and associated changes found in rats | increases | increases | significant increases | significant increases | significant increases | cardiotoxicity seen |  |  |  |  |  |  |  |  |  | 
2 | Nc1nc(-c2ccccc2)c(CCO)c2ncnn12 [compound II, 8-(2-hydroxyethyl)-7-phenyl 1,2,4-triazolo[2,3-c]pyrimidine-5-amine] | myocardial lesions and associated changes found in rats |  |  |  |  |  | cardiotoxicity seen | undergoes aliphatic hydroxylation in the rat | not seen in man |  |  |  |  |  |  |  | 
3 | Nc1nc(-c2ccccc2)c(C(O)CO)c2ncnn12 (stereo not shown) [compound III, 8-(1,2-dihydroxyethyl)-7-phenyl-1,2,4-triazolo[2,3-c]pyrimidine-5-amine] |  |  |  |  |  |  |  |  |  | does not appear to be cardiotoxic; also recorded: no incidence of cardiotoxic side effects in rats | well in excess of the concentrations that one might expect to see at cardiotoxic dosages of compounds I and II | 13800 ng/mL | 19800 ng/mL | 36700 ng/mL | 47000 ng/mL | more water soluble | more bioavailable
